Laboratory results published in ChEMBL document CHEMBL1133041, “Synthetic conversion of ACAT inhibitor to acetylcholinesterase inhibitor” (Bioorg Med Chem Lett, 2000).

Tests used:
[1] = target: T1, Sterol O-acyltransferase 1 (Homo sapiens, UniProt P35610); assay: Inhibitory activity against acyl-CoA:cholesterol acyltransferase (ACAT)
T1 sequence (P35610 whole entry): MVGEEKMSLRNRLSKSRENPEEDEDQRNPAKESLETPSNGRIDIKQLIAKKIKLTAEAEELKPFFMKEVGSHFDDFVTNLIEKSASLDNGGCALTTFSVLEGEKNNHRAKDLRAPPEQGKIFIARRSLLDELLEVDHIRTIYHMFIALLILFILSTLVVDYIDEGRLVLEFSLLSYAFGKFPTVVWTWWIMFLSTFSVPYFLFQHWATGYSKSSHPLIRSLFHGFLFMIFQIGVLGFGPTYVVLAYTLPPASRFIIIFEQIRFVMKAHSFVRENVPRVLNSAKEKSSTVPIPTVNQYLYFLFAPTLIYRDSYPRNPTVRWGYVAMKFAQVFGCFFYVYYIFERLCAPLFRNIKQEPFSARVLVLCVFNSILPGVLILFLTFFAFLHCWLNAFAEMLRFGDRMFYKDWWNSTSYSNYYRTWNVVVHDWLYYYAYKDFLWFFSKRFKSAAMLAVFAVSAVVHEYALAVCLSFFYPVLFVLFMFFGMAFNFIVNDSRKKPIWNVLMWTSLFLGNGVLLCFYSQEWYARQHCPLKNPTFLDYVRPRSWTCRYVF

Acetylcholinesterase [2] = target: T2, Acetylcholinesterase (Homo sapiens, UniProt P22303); assay: Inhibitory activity against Acetylcholinesterase
[3] = target: T1, Sterol O-acyltransferase 1; assay: Inhibitory activity against acyl-CoA:cholesterol acyltransferase (ACAT); no inhibition >1000
Acetylcholinesterase [4] = target: T2, Acetylcholinesterase; assay: Inhibitory activity against Acetylcholinesterase; no inhibition at 100 uM

T2 sequence (P22303 whole entry): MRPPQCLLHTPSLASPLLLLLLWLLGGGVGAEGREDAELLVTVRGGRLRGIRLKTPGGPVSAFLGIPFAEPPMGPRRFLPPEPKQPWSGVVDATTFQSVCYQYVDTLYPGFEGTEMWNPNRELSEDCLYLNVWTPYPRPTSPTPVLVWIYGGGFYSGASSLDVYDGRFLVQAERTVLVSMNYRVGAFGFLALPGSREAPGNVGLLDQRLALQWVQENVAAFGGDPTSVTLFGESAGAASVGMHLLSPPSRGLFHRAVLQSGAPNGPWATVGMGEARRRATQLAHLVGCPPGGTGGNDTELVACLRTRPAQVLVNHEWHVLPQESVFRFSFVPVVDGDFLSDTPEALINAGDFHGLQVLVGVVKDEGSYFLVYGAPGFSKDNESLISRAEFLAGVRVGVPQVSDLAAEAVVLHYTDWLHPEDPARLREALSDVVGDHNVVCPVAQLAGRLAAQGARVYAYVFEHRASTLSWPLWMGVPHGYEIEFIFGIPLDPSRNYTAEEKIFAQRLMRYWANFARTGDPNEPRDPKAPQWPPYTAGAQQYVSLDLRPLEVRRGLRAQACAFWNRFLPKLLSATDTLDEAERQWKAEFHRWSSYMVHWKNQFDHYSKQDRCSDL

Row | Compound | IC50 (Acetylcholinesterase [2]) | also measured
1 | COc1cc(-c2cc3c(c(=O)o2)C[C@]2(O)[C@@]4(C)C(=O)C=CC(C)(C)[C@]4(O)CC[C@@]2(C)O3)cc(OC)c1OC [TERRITREM B] | 0.008 µM | IC50 [1]: > 50 µM
2 | C[C@]12CC[C@H](O)[C@@](C)(CO)C1C[C@H](O)[C@@]1(C)Oc3cc(-c4ccccn4)oc(=O)c3C(=O)C21 (stereo partly specified) | 101 µM | 
3 | C[C@]12CC[C@H](O)[C@@](C)(CO)C1C[C@H](O)[C@@]1(C)Oc3cc(-c4ccncc4)oc(=O)c3C(=O)C21 (stereo partly specified) | 7.9 µM | IC50 [3]: No inhibition
4 | C[C@]12CC[C@H](O)[C@@](C)(CO)C1C[C@H](O)[C@@]1(C)Oc3cc(-c4ccc(Cl)nc4)oc(=O)c3C(=O)C21 (stereo partly specified) | 80 µM | 
5 | COc1ccc(-c2cc3c(c(=O)o2)C(=O)C2[C@@]4(C)CC[C@H](O)[C@@](C)(CO)C4C[C@H](O)[C@@]2(C)O3)cc1OC (stereo partly specified) | 58 µM | 
6 | COc1ccc(-c2cc3c(c(=O)o2)C(=O)C2[C@@]4(C)CC[C@H](O)[C@@](C)(CO)C4C[C@H](O)[C@@]2(C)O3)cc1 (stereo partly specified) | 70 µM | IC50 [3]: Not Active
7 | COc1cccc(-c2cc3c(c(=O)o2)C(=O)C2[C@@]4(C)CC[C@H](O)[C@@](C)(CO)C4C[C@H](O)[C@@]2(C)O3)c1 (stereo partly specified) | > 93 µM | 
8 | COc1ccc(-c2cc3c(c(=O)o2)C[C@]2(O)[C@@]4(C)C(=O)C=CC(C)(C)[C@]4(O)CC[C@@]2(C)O3)cc1OC | 0.001 µM | IC50 [1]: > 50 µM
9 | C[C@]12CC[C@H](O)[C@@](C)(CO)C1C[C@H](O)[C@@]1(C)Oc3cc(-c4ccccc4)oc(=O)c3C(=O)C21 (stereo partly specified) | 99 µM | 
10 | C[C@]12CC[C@H](O)[C@@](C)(CO)C1C[C@H](O)[C@@]1(C)Oc3cc(-c4cccnc4)oc(=O)c3C(=O)C21 (stereo partly specified) | 35 µM | 
11 | COc1ccc(-c2cc3c(c(=O)o2)C[C@]2(O)[C@@]4(C)C(=O)C=CC(C)(C)[C@]4(O)CC[C@@]2(C)O3)cc1 | 0.026 µM | 
12 | CC(=O)OC[C@@]1(C)C2C[C@H](OC(C)=O)[C@@]3(C)Oc4cc(-c5cccnc5)oc(=O)c4[C@H](O)C3[C@@]2(C)CC[C@@H]1OC(C)=O (stereo partly specified) |  | IC50 (Acetylcholinesterase [4]): No inhibition
